From PubChem BioAssay (NCI)
Values joined by “and” are separate entries in the source; they are usually repeats but may differ in a detail not shown here. Identical values can stand only once.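 Compound exposure: 48 hours, 5 concentrations, 96-well plates. GI50 = concentration required for 50% inhibition of growth. At the TGI there is no net growth.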

Assays:
Assay in all cases: NCI-60 cell line screen, 48 h
MDA-MB-435 = tested on: MDA-MB-435
CCRF-CEM leukemia = tested on: CCRF-CEM leukemia
SK-MEL-5 melanoma = tested on: SK-MEL-5 melanoma
SNB-75 CNS = tested on: SNB-75 CNS
HCT-116 colon = tested on: HCT-116 colon
HL-60(TB) leukemia = tested on: HL-60(TB) leukemia
SNB-19 CNS = tested on: SNB-19 CNS
KM12 colon = tested on: KM12 colon
COLO 205 colon = tested on: COLO 205 colon
NCI-H522 lung = tested on: NCI-H522 lung

| Structure (SMILES) | GI50 (MDA-MB-435) | TGI (MDA-MB-435) | GI50 (CCRF-CEM leukemia) | TGI (CCRF-CEM leukemia) | GI50 (SK-MEL-5 melanoma) | TGI (SK-MEL-5 melanoma) | GI50 (SNB-75 CNS) | TGI (SNB-75 CNS) | GI50 (HCT-116 colon) | TGI (HCT-116 colon) | GI50 (HL-60(TB) leukemia) | TGI (HL-60(TB) leukemia) | GI50 (SNB-19 CNS) | TGI (SNB-19 CNS) | GI50 (KM12 colon) | TGI (KM12 colon) | GI50 (COLO 205 colon) | TGI (COLO 205 colon) | GI50 (NCI-H522 lung) | TGI (NCI-H522 lung) |
| --- | --- | --- | --- | --- | --- | --- | --- | --- | --- | --- | --- | --- | --- | --- | --- | --- | --- | --- | --- | --- |
| COC12C=C/C(=C(/C(=O)OCCSc3ccnn3C)C(=O)CCCCCCCCC3(OC)C=C/C(=C(/C(=O)OCCSc4ccnn4C)C(=O)CCCCCCCC1)O3)O2 | 0.685 µM | 1.57 µM | 1.09 µM | > 32.5 µM | 0.581 µM | 1.09 µM | 0.999 µM | 4.9 µM | 0.66 µM | 1.37 µM | 0.929 µM | 2.63 µM | 1.88 µM | > 32.5 µM | 0.813 µM | 2.1 µM | 0.814 µM | 2.15 µM | 0.648 µM | 1.62 µM |
| O=C(O)/C=C/c1ccc[c]([Sb](=[O])([OH])[OH])c1 | > 100 µM | > 100 µM |  |  | > 100 µM | > 100 µM |  |  | > 100 µM | > 100 µM | > 100 µM | > 100 µM | > 100 µM | > 100 µM | > 100 µM | > 100 µM |  |  | > 100 µM | > 100 µM |
| c1ccc2cc(Cn3cc[n+](Cc4ccc5ccccc5c4)c3)ccc2c1 | 0.543 µM | 2.29 µM | 1.61 µM | 11 µM | 0.258 µM | 0.916 µM | 0.328 µM | 2.91 µM | 1.97 µM | 12.3 µM | 0.264 µM | 1.35 µM | 0.979 µM | 6.97 µM | 1.15 µM | 2.62 µM | 0.4 µM | 1.67 µM | 0.393 µM | 3.11 µM |
| CC(=Nc1ccccc1)C1=C(O)C(Cc2cccc(F)c2)NC1=O (stereo not given) | 0.018 µM | 0.056 µM | 0.0581 µM | > 100 µM | 0.0343 µM | 1.82 µM |  |  | 0.047 µM | > 39.4 µM | 0.0334 µM |  | 0.156 µM | > 100 µM | 0.0457 µM | > 100 µM | 0.035 µM | 0.141 µM | 0.0286 µM | 0.182 µM |
| O=c1cc(-c2ccccc2)oc2ccc(OC/C(=N/O)c3ccc(F)cc3)cc12 | 0.913 µM | 1.98 µM | 3.24 µM | 17.1 µM | 1.61 µM | 6.23 µM | 4.64 µM | > 50 µM | 2.97 µM | 9.05 µM | 1.97 µM | 13.9 µM | 5.1 µM | > 50 µM | 1.6 µM | 6.01 µM | 2.23 µM | 8.19 µM | 4.68 µM | > 50 µM |
| C=C1C(=O)O[C@H]2[C@H]1CC/C(COC(=O)c1cn(C)c3ccccc13)=C\CC[C@@]1(C)O[C@@H]21 | 1.34 µM | 3.34 µM | 0.217 µM | 0.94 µM | 1.42 µM | 2.77 µM | 1.09 µM | 2.32 µM | 1.02 µM | 2.24 µM | 1.54 µM | 4.17 µM | 1.59 µM | 3.64 µM | 1.83 µM | 4.79 µM | 1.24 µM | 2.59 µM | 0.399 µM | 1.62 µM |
| O=C1OCC(c2ccc(O)cc2)=C1c1cc(O)c(O)c(O)c1 | 26.4 µM | 53.8 µM | 51.7 µM | > 100 µM | > 100 µM | > 100 µM | > 100 µM | > 100 µM | 36 µM | > 100 µM |  |  | > 100 µM | > 100 µM | 89.3 µM | > 100 µM | > 100 µM | > 100 µM | > 100 µM | > 100 µM |
| CC(CN1CC(=O)NC(=O)C1)N1CC(=O)NC(=O)C1 (stereo not given) |  | > 750 µM |  | > 662 µM |  | > 750 µM |  | > 715 µM |  | > 750 µM |  | 690 µM |  | > 750 µM |  | > 729 µM | 25.3 µM | 443 µM |  | > 724 µM |
| CCN1C(=O)N(CC)C2C1NN=c1s/c(=C\c3cccs3)c(=O)n12 (stereo not given) | 0.0268 µM | 0.0828 µM | 0.256 µM | > 100 µM | 0.218 µM | 4.26 µM | 0.0976 µM | > 100 µM | 0.0903 µM | > 100 µM | 0.225 µM | 0.707 µM | 0.506 µM | > 100 µM | 0.0545 µM | > 82.6 µM | 0.154 µM | > 100 µM | 0.0974 µM | > 100 µM |
| COc1cccc(Sc2ccc([N+](=O)[O-])c3no[n+]([O-])c23)c1 | 13.4 µM | 43.1 µM | 2.6 µM | 8.14 µM | 15.1 µM | 29.5 µM | 13.9 µM | 39.4 µM | 3.7 µM | 14.4 µM | 5.12 µM | 14.6 µM | 35 µM | > 88.3 µM | 17.2 µM | 33.5 µM | 2.49 µM | 7.31 µM | 1.98 µM | 3.93 µM |
| O=C1CSC(c2ccc(-c3nc4ccccc4[nH]3)cc2)=N1 | 32.5 µM | > 50 µM |  |  | 13 µM | > 50 µM |  |  | 18.6 µM | > 50 µM | > 50 µM | > 50 µM | > 50 µM | > 50 µM | 22.8 µM | > 50 µM | > 50 µM | > 50 µM | 37.3 µM | > 50 µM |
| COC1CC(C)C(OC)c2cc(O)cc(c2O)NC(=O)/C(C)=C/C=C\C(C)C(OC(N)=O)/C(C)=C\C(C)C1OC (stereo not given) |  | 32.2 µM and 6.1 µM | 0.0356 µM and 0.148 µM |  | 0.691 µM and 0.599 µM | 18.1 µM and 5.29 µM | 0.245 µM | 18.2 µM and 3.42 µM | 0.0642 µM and 0.571 µM | 8.1 µM and 9.01 µM | 0.075 µM and 0.227 µM and 0.0937 µM | 1.48 µM and 0.578 µM | 0.649 µM | 23.7 µM and 72.3 µM | 0.111 µM and 0.184 µM | 1.9 µM and 2.83 µM | 0.0414 µM and 0.0785 µM | 7.12 µM and 2.8 µM | 0.0575 µM and 0.0989 µM | 0.683 µM and 0.913 µM |
| Cc1cc2c(cc1C)[n+](=O)c(C(=O)/C=C/c1ccc3c(c1)OCO3)c(C)n2[O-] |  | > 100 µM |  | > 100 µM |  | > 100 µM |  | 39.9 µM |  | > 100 µM |  | > 100 µM |  | 79.3 µM |  | > 100 µM |  | > 100 µM |  | 79.4 µM |
| O=C1Nc2ccccc2/C1=C\c1cccc(/C=C2/C(=O)Nc3ccccc32)n1 | 0.355 µM | 1.81 µM | 0.356 µM | > 100 µM | 0.242 µM | 0.722 µM | 1.32 µM | 3.46 µM | 0.155 µM | 0.296 µM | 0.452 µM |  | 0.526 µM | 1.98 µM | 0.282 µM | 1.02 µM | 0.356 µM | 1.57 µM | 0.208 µM | 0.705 µM |
| CC(=O)NNc1nc(C)c(C(/C=C/c2ccc([N+](=O)[O-])cc2)=N/NC(N)=O)s1 |  | > 100 µM |  | > 100 µM |  | > 100 µM |  | > 100 µM |  | > 100 µM |  |  |  | > 100 µM |  | > 100 µM |  | > 100 µM |  | > 100 µM |
| CCOc1cc(C(=O)O)c2c(ccc3ccc(OC)c(OC)c32)c1OC |  | > 100 µM |  | > 100 µM |  | > 100 µM |  | > 100 µM |  | > 100 µM |  | > 100 µM |  | > 100 µM |  | > 100 µM |  | > 100 µM |  | > 100 µM |
| COc1ccc(C(C#N)=C2C=CC(=NO)C=C2)cc1 | 2.23 µM | 5.8 µM | 2.76 µM | > 100 µM | 4.34 µM | 17.2 µM | 5.3 µM | 18.9 µM | 2.27 µM | 5.55 µM | 3.08 µM | 57.5 µM | 16.1 µM | 32.1 µM | 1.79 µM | 4.04 µM | 15.3 µM | 30 µM | 1.23 µM | 3.41 µM |
| Cc1ccc(-c2c(C#N)[n+](=O)c3cc(F)c(F)cc3n2[O-])cc1 | 2.27 µM | 5.95 µM | 1.6 µM | 4.41 µM | 14.2 µM | 28.1 µM | 19.2 µM | 34.6 µM | 1.23 µM | 5.21 µM |  |  | 18.6 µM | 34.9 µM | 9.9 µM | 28.3 µM | 19.5 µM | 38.6 µM | 3.43 µM | 76.9 µM |
| O=C(O)C(Br)C(Br)C(=O)O (stereo not given) |  | > 100 µM |  |  |  | > 100 µM |  | > 100 µM |  | > 100 µM |  | > 100 µM |  | > 100 µM |  | > 100 µM |  | > 100 µM |  | > 100 µM |
| CCCCCCCN(CCCCCCC)C(=N)c1ccnc2ccccc12 | 1.58 µM | 3.24 µM | 2.14 µM | 5.27 µM | 1.51 µM | 2.96 µM | 1.2 µM | 2.77 µM |  |  | 1.75 µM | 3.7 µM | 1.79 µM | 3.68 µM | 1.82 µM | 3.49 µM | 1.58 µM | 3.51 µM | 1.65 µM | 3.41 µM |
| C[C@]12CC[C@@H]3c4ccc(O)cc4CC[C@H]3[C@@H]1CC[C@@H]2NS(=O)(=O)c1cccc(Cl)c1 | 2.63 µM | 8.7 µM | 2.94 µM | 14.4 µM | 1.72 µM | 3.22 µM | 2.25 µM | 9.01 µM | 1.68 µM | 3.11 µM |  |  | 3.87 µM | 14.4 µM | 1.96 µM | 4.24 µM | 1.81 µM | 3.31 µM | 1.91 µM | 7.15 µM |
